≈ marks a conversion by molar mass, not a printed value.
Assays:
[1] = Approximate water solubility by solvent addition method (visual inspection of complete dissolution)
Experimental: The approximate water solubility of Form A and amorphous Rebaudioside X were determined by a solvent addition method in which a weighed sample was treated with aliquots of water. The mixture was generally vortexed and/or sonicated between additions to facilitate dissolution. Complete dissolution of the test material was determined by visual inspection. Solubility was estimated based on the total solvent used to provide complete dissolution. The actual solubility may be greater than the value calculated because of the use of solvent aliquots that were too large or due to a slow rate of dissolution.

[2] = Water solubility of starting sample and spray-dried product (Example 4); format: physicochemical
[3] = Duration of clarity of aqueous solutions at various test material/water ratios, with or without filtration (Example 9); format: physicochemical
From the text: The water solubility of amorphous Rebaudioside X prepared according to Example 4 was compared in various test material/water ratios with or without filtration prior to solubility determination. Generally, filtration performed after dissolution of sample assist the duration of clarity of the sample (or delays the precipitation/recrystallization of sample). […]

[4] = Equilibrium solubility in water by UV absorbance at 205 nm (Example 10); format: physicochemical; details: 25°C; for Original Sample Concentration: 250 mg in 10 mL water
Experimental: Samples were analyzed with a Cary 50 UV-Vis dual beam spectrophotometer. The detector was zeroed with a cuvette filled with water prior to sample analysis. Samples were analyzed at room temperature in 1.0 cm quartz cuvette using a scan rate of 600 nm/min in a range of 200 - 400 nm.
25.8 mg of amorphous Rebaudioside X was added to a 10-mL volumetric flask and dissolved 10 mL with water. This stock solution was diluted to five concentration levels for UV measurement.
A calibration curve at 205 nm was established (Abs at 205 nm vs. concentration) to provide the equation y = 5.0625x + 0.0022. R^2 was 0.9999. This equation was used for the subsequent determination of Rebaudioside X concentrations.
250 mg of amorphous Rebaudioside X was added to an amber vial and 10 mL of water was added. The mixture was stirred at room temperature about 10 minutes to yield a transparent solution with only small amount of solid remaining. The mixture became opaque rapidly. The mixture was placed on a mechanical oscillator set at a speed of 250 and 25°C. At the sampling time point of 1, 16, 24, 48, 72, 96, and 192 hours, an aliquot of the slurry was transferred to a centrifuge tube and separated at a speed of 16K rcf for 15 minutes. 200 µL of the clear supernatant was transferred to a 50-mL volumetric flask, 10 mL of water was added and mixed well before UV analysis.

[5] = Dynamic Vapor Sorption (DVS) isotherm; format: physicochemical
Experimental: The Dynamic Vapor Sorption (DVS) DVS data were collected on a VTI SGA-100 Vapor Sorption Analyzer. NaCl and PVP were used as calibration standards. The sample was not dried prior to analysis. Sorption and desorption data were collected over a range from 5 to 95% RH at 10% RH increments under a nitrogen purge. The equilibrium criterion used for analysis was less than 0.0100% weight change in 5 minutes with a maximum equilibration time of 3 hours. Data were not corrected for the initial moisture content of the samples.

[6] = Table 6, water, solvent addition

## C=C1C[C@@]23CC[C@H]4[C@@](C)(CCC[C@@]4(C)C(=O)O[C@@H]4O[C@H](CO)[C@@H](O)[C@H](O[C@@H]5O[C@H](CO)[C@@H](O)[C@H](O)[C@H]5O)[C@H]4O[C@@H]4O[C@H](CO)[C@@H](O)[C@H](O)[C@H]4O)[C@@H]2CC[C@]1(O[C@@H]1O[C@H](CO)[C@@H](O)[C@H](O[C@@H]2O[C@H](CO)[C@@H](O)[C@H](O)[C@H]2O)[C@H]1O[C@@H]1O[C@H](CO)[C@@H](O)[C@H](O)[C@H]1O)C3 [Amorphous (water process)]
[1]; [6]
  Approximate Water Solubility: >10000 µg/mL

## C=C1C[C@@]23CC[C@H]4[C@@](C)(CCC[C@@]4(C)C(=O)O[C@@H]4O[C@H](CO)[C@@H](O)[C@H](O[C@@H]5O[C@H](CO)[C@@H](O)[C@H](O)[C@H]5O)[C@H]4O[C@@H]4O[C@H](CO)[C@@H](O)[C@H](O)[C@H]4O)[C@@H]2CC[C@]1(O[C@@H]1O[C@H](CO)[C@@H](O)[C@H](O[C@@H]2O[C@H](CO)[C@@H](O)[C@H](O)[C@H]2O)[C@H]1O[C@@H]1O[C@H](CO)[C@@H](O)[C@H](O)[C@H]1O)C3 [Form A Rebaudioside X, (13-[2-O-β-D-glucopyranosyl-3-O-β-D-glucopyranosyl-β-D-glucopyranosyl)oxy] ent kaur-16-en-19-oic acid-[2-O-β-D-glucopyranosyl-3-O-β-D-glycopyranosyl) ester]
[1]; [6]
  Approximate Water Solubility: 1400 µg/mL
[1]; discussion text of Example 13
  Approximate Water Solubility: 14000 µg/mL
[2]
  water solubility: 0.05%

## C=C1C[C@@]23CC[C@H]4[C@@](C)(CCC[C@@]4(C)C(=O)O[C@@H]4O[C@H](CO)[C@@H](O)[C@H](O[C@@H]5O[C@H](CO)[C@@H](O)[C@H](O)[C@H]5O)[C@H]4O[C@@H]4O[C@H](CO)[C@@H](O)[C@H](O)[C@H]4O)[C@@H]2CC[C@]1(O[C@@H]1O[C@H](CO)[C@@H](O)[C@H](O[C@@H]2O[C@H](CO)[C@@H](O)[C@H](O)[C@H]2O)[C@H]1O[C@@H]1O[C@H](CO)[C@@H](O)[C@H](O)[C@H]1O)C3 [amorphous Rebaudioside X, (13-[2-O-β-D-glucopyranosyl-3-O-β-D-glucopyranosyl-β-D-glucopyranosyl)oxy] ent kaur-16-en-19-oic acid-[2-O-β-D-glucopyranosyl-3-O-β-D-glycopyranosyl) ester]
[1]; aqueous, grams of Rebaudioside X per 100 mL water
  approximate solubility: greater than 0.3%
[3]; Sample 1: 250 mg/500 mL water, not filtered
  Duration of Clarity of Sample: > 60 days^a
[3]; Sample 2: 500 mg/500 mL water, not filtered
  Duration of Clarity of Sample: > 60 days^a
[3]; Sample 3: 750 mg/500 mL water, not filtered
  Duration of Clarity of Sample: > 0.12 days
[3]; Sample 5: 625 mg/250 mL water, filtered (0.22 µm membrane)
  Duration of Clarity of Sample: > 1 days
[3]; Sample 6: 1750 mg/500 mL water, not filtered
  Duration of Clarity of Sample: ∼3 h
[3]; Sample 7: 1750 mg/500 mL water, filtered (0.22 µm membrane)
  Duration of Clarity of Sample: > 1 days
[3]; Sample 8: 1000 mg/100 mL water, filtered (0.22 µm membrane)
  Duration of Clarity of Sample: ∼2 h
[2]
  water solubility: greater than 1%
[4]; sampling time 1 hrs
  Original Sample Concentration: 5.8 mg/mL
[4]; sampling time 16 hrs
  Original Sample Concentration: 2.7 mg/mL
[4]; sampling time 24 hrs
  Original Sample Concentration: 2.6 mg/mL
[4]; sampling time 48 hrs
  Original Sample Concentration: 2.5 mg/mL
[4]; sampling time 72 hrs
  Original Sample Concentration: 2.8 mg/mL
[4]; sampling time 96 hrs
  Original Sample Concentration: 2.8 mg/mL
[4]; sampling time 192 hrs
  Original Sample Concentration: 2.6 mg/mL
[4]; water
  solubility thermodynamic: 2600 µg/mL (≈ 2010 µM)
  time until equilibrium was established: ≤ 16 h
[5]; DVS desorption from 95% to 5% RH
  weight loss upon desorption: 26.0 wt%
[5]; DVS sorption from 5% to 95% RH
  weight gain with increasing relative humidity: 26.3 wt%
[5]; DVS, 5% RH
  weight loss upon equilibration at 5% RH: 3.1 wt%
